Columns and labels:
[1] = system: HT29 (colonic carcinoma) cells; experiment: Tumor cell uptake in HT29 cells; type: cell-based, human; settings: compared to [^18F]FDG
Experimental: For the evaluation of the tumor cell uptake of [^18F]glutamic acid, cell uptake experiments were carried out in human A549 (non-small-cell bronchial carcinoma) and HT29 (colonic carcinoma) cells. The tumor cell uptake of the glutamic acid derivatives was compared to
[^18F]FDG (gold standard for oncological PET investigations).

[2] = system: murine B16F1 melanoma model in C57BI6 mice; experiment: Tumor enrichment and tissue distribution, B16F1 melanoma model; settings: for Tumor/tissue quotient, Blood / Tumor/tissue quotient, Brain / Tumor/tissue quotient, Fat / Tumor/tissue quotient, Heart / Tumor/tissue quotient, Intestine / Tumor/tissue quotient, Kidney / Tumor/tissue quotient, Liver / Tumor/tissue quotient, Lung / Tumor/tissue quotient, Muscle / Tumor/tissue quotient, Ovary / Tumor/tissue quotient, Skin / Tumor/tissue quotient, Spleen / Tumor/tissue quotient, Stomach / Tumor/tissue quotient, Uterus: single i.v.; for Tissue uptake, Blood / Tissue uptake, Brain / Tissue uptake, Fat / Tissue uptake, Heart / Tissue uptake, Intestine / Tissue uptake, Kidney / Tissue uptake, Liver / Tissue uptake, Lung / Tissue uptake, Muscle / Tissue uptake, Ovary / Tissue uptake, Skin / Tissue uptake, Spleen / Tissue uptake, Stomach / Tissue uptake, Tumor / Tissue uptake, Uterus: single i.v. 370 kBq; for tumor/blood quotient / tumor/blood quotient, factor higher than for [^14C]5-glutamic acid / tumor/liver quotient / tumor/liver quotient, factor higher than for [^14C]5-glutamic acid: B16F1 melanoma model
Experimental: For the evaluation of the tumor enrichment and the tissue distribution in experimental animals, [^18F]-4-glutamic acid was tested in a murine F9 teratocarcinoma model in NMRI nude mice and a murine B16F1 melanoma model in C57BI6 mice.
For this, 1×10^6 cells (F9) or 5×10^5 cells (B16F1) respectively were suspended in 100 μl of phosphate-buffered physiological saline solution and inoculated subcutaneously into the right, rear flank of the corresponding experimental animal species (NMRI for F9 and 057-BI6 for B16F1) (Berndorff et al. Clin. Cancer Res. 2005, 11, 2005). […] [^18F]-4-Glutamic acid (370 kBq, in 100 μl of physiological saline solution) was administered intravenously to the tail vein. After 15; 60 and 120 min in each case, the animals were killed, organ and tumor removed, weighed and measured for radioactive content.

NC(CC([18F])C(=O)O)C(=O)O (centres unmarked) [[^18F]4-glutamic acid, 4-[F-18]fluoroglutamic acid]
tumor cell uptake [1]: surprisingly high uptake
Tumor/tissue quotient, Blood ([2]; 0.25 h (times as Table 3)): 1.21
Tumor/tissue quotient, Brain ([2]; 0.25 h (times as Table 3)): 4.89
Tumor/tissue quotient, Fat ([2]; 0.25 h (times as Table 3)): 3.95
Tumor/tissue quotient, Heart ([2]; 0.25 h (times as Table 3)): 1.06
Tumor/tissue quotient, Intestine ([2]; 0.25 h (times as Table 3)): 1.19
Tumor/tissue quotient, Kidney ([2]; 0.25 h (times as Table 3)): 0.31
Tumor/tissue quotient, Liver ([2]; 0.25 h (times as Table 3)): 0.93
Tumor/tissue quotient, Lung ([2]; 0.25 h (times as Table 3)): 0.32
Tumor/tissue quotient, Muscle ([2]; 0.25 h (times as Table 3)): 1.72
Tumor/tissue quotient, Ovary ([2]; 0.25 h (times as Table 3)): 1.03
Tumor/tissue quotient, Skin ([2]; 0.25 h (times as Table 3)): 1.49
Tumor/tissue quotient, Spleen ([2]; 0.25 h (times as Table 3)): 0.89
Tumor/tissue quotient, Stomach ([2]; 0.25 h (times as Table 3)): 1.05
Tumor/tissue quotient, Uterus ([2]; 0.25 h (times as Table 3)): 0.56
Tissue uptake, Blood ([2]; 0.25 h): 2.93 % dose/g
Tissue uptake, Brain ([2]; 0.25 h): 0.73 % dose/g
Tissue uptake, Fat ([2]; 0.25 h): 0.92 % dose/g
Tissue uptake, Heart ([2]; 0.25 h): 3.36 % dose/g
Tissue uptake, Intestine ([2]; 0.25 h): 3.00 % dose/g
Tissue uptake, Kidney ([2]; 0.25 h): 11.35 % dose/g
Tissue uptake, Liver ([2]; 0.25 h): 3.81 % dose/g
Tissue uptake, Lung ([2]; 0.25 h): 11.10 % dose/g
Tissue uptake, Muscle ([2]; 0.25 h): 2.19 % dose/g
Tissue uptake, Ovary ([2]; 0.25 h): 3.57 % dose/g
Tissue uptake, Skin ([2]; 0.25 h): 2.43 % dose/g
Tissue uptake, Spleen ([2]; 0.25 h): 4.07 % dose/g
Tissue uptake, Stomach ([2]; 0.25 h): 3.41 % dose/g
Tissue uptake, Tumor ([2]; 0.25 h): 3.55 % dose/g
Tissue uptake, Uterus ([2]; 0.25 h): 7.17 % dose/g
Tumor/tissue quotient, Blood ([2]; 1.0 h (times as Table 3)): 5.25
Tumor/tissue quotient, Brain ([2]; 1.0 h (times as Table 3)): 4.7
Tumor/tissue quotient, Fat ([2]; 1.0 h (times as Table 3)): 14.16
Tumor/tissue quotient, Heart ([2]; 1.0 h (times as Table 3)): 3.54
Tumor/tissue quotient, Intestine ([2]; 1.0 h (times as Table 3)): 1.56
Tumor/tissue quotient, Kidney ([2]; 1.0 h (times as Table 3)): 1.25
Tumor/tissue quotient, Liver ([2]; 1.0 h (times as Table 3)): 3.63
Tumor/tissue quotient, Lung ([2]; 1.0 h (times as Table 3)): 1.51
Tumor/tissue quotient, Muscle ([2]; 1.0 h (times as Table 3)): 4.3
Tumor/tissue quotient, Ovary ([2]; 1.0 h (times as Table 3)): 4.38
Tumor/tissue quotient, Skin ([2]; 1.0 h (times as Table 3)): 5.43
Tumor/tissue quotient, Spleen ([2]; 1.0 h (times as Table 3)): 2.81
Tumor/tissue quotient, Stomach ([2]; 1.0 h (times as Table 3)): 4.02
Tumor/tissue quotient, Uterus ([2]; 1.0 h (times as Table 3)): 3.84
Tissue uptake, Blood ([2]; 1.0 h): 0.48 % dose/g
Tissue uptake, Brain ([2]; 1.0 h): 0.49 % dose/g
Tissue uptake, Fat ([2]; 1.0 h): 0.18 % dose/g
Tissue uptake, Heart ([2]; 1.0 h): 0.71 % dose/g
Tissue uptake, Intestine ([2]; 1.0 h): 1.28 % dose/g
Tissue uptake, Kidney ([2]; 1.0 h): 2.25 % dose/g
Tissue uptake, Liver ([2]; 1.0 h): 0.64 % dose/g
Tissue uptake, Lung ([2]; 1.0 h): 1.47 % dose/g
Tissue uptake, Muscle ([2]; 1.0 h): 0.53 % dose/g
Tissue uptake, Ovary ([2]; 1.0 h): 0.58 % dose/g
Tissue uptake, Skin ([2]; 1.0 h): 0.48 % dose/g
Tissue uptake, Spleen ([2]; 1.0 h): 0.81 % dose/g
Tissue uptake, Stomach ([2]; 1.0 h): 0.59 % dose/g
Tissue uptake, Tumor ([2]; 1.0 h): 2.14 % dose/g
Tissue uptake, Uterus ([2]; 1.0 h): 0.69 % dose/g
Tumor/tissue quotient, Blood ([2]; 2.0 h (times as Table 3)): 7.93
Tumor/tissue quotient, Brain ([2]; 2.0 h (times as Table 3)): 3.55
Tumor/tissue quotient, Fat ([2]; 2.0 h (times as Table 3)): 8.85
Tumor/tissue quotient, Heart ([2]; 2.0 h (times as Table 3)): 5.06
Tumor/tissue quotient, Intestine ([2]; 2.0 h (times as Table 3)): 0.87
Tumor/tissue quotient, Kidney ([2]; 2.0 h (times as Table 3)): 2.22
Tumor/tissue quotient, Liver ([2]; 2.0 h (times as Table 3)): 4.42
Tumor/tissue quotient, Lung ([2]; 2.0 h (times as Table 3)): 2.34
Tumor/tissue quotient, Muscle ([2]; 2.0 h (times as Table 3)): 6.95
Tumor/tissue quotient, Ovary ([2]; 2.0 h (times as Table 3)): 3.02
Tumor/tissue quotient, Skin ([2]; 2.0 h (times as Table 3)): 5.94
Tumor/tissue quotient, Spleen ([2]; 2.0 h (times as Table 3)): 4.03
Tumor/tissue quotient, Stomach ([2]; 2.0 h (times as Table 3)): 4.24
Tumor/tissue quotient, Uterus ([2]; 2.0 h (times as Table 3)): 2.59
Tissue uptake, Blood ([2]; 2.0 h): 0.16 % dose/g
Tissue uptake, Brain ([2]; 2.0 h): 0.36 % dose/g
Tissue uptake, Fat ([2]; 2.0 h): 0.16 % dose/g
Tissue uptake, Heart ([2]; 2.0 h): 0.28 % dose/g
Tissue uptake, Intestine ([2]; 2.0 h): 1.46 % dose/g
Tissue uptake, Kidney ([2]; 2.0 h): 0.57 % dose/g
Tissue uptake, Liver ([2]; 2.0 h): 0.29 % dose/g
Tissue uptake, Lung ([2]; 2.0 h): 0.56 % dose/g
Tissue uptake, Muscle ([2]; 2.0 h): 0.24 % dose/g
Tissue uptake, Ovary ([2]; 2.0 h): 0.45 % dose/g
Tissue uptake, Skin ([2]; 2.0 h): 0.22 % dose/g
Tissue uptake, Spleen ([2]; 2.0 h): 0.31 % dose/g
Tissue uptake, Stomach ([2]; 2.0 h): 0.30 % dose/g
Tissue uptake, Tumor ([2]; 2.0 h): 1.27 % dose/g
Tissue uptake, Uterus ([2]; 2.0 h): 0.76 % dose/g
tumor/blood quotient ([2]; 1 h p.i.): 5.3
tumor/blood quotient, factor higher than for [^14C]5-glutamic acid ([2]; 1 h p.i.): 2
tumor/liver quotient ([2]; 1 h p.i.): 3.6
tumor/liver quotient, factor higher than for [^14C]5-glutamic acid ([2]; 1 h p.i.): 4.6
tumor/blood quotient ([2]; 2 h p.i.): 7.9
tumor/blood quotient, factor higher than for [^14C]5-glutamic acid ([2]; 2 h p.i.): 3.5
tumor/liver quotient ([2]; 2 h p.i.): 4.4
tumor/liver quotient, factor higher than for [^14C]5-glutamic acid ([2]; 2 h p.i.): 5.5
tumor enrichment ([2]; B16F1 melanoma, 1 h after intravenous administration): 2.14 % ID/g
maximal tumor enrichment ([2]; B16 melanoma, after intravenous injection (15 min)): 3.55 % ID/g

— patent US9375497B2, “[F-18]-labeled L-glutamic acid, [F-18]-labeled L-glutamine, derivatives thereof and use thereof and processes for their preparation” (BAYER SCHERING PHARMA AKTIENGESELLSCHAFT, priority 2006, dated 2016)
